Assays:
H1299 cells [1] = assay: β-gal expression by X-gal staining after Ad/CMV/β-gal infection of agent-treated cells; assay type: cell-based, human
Protocol: (§1) Gene Delivery Protocol: In vitro gene delivery was performed by incubating cells in six-well plates (Falcon Plastics, Lincoln Park, N.J.) for two hours with Adv/CMV/β-gal in appropriate medium supplemented with 2% FCS. The multiplicity of infection (MOI: number of viral particles per target cell) was based on cell counts of untreated wells. Fresh, complete medium with the appropriate concentration of FCS was then added to the wells at the end of the infection period and cells were then incubated for 20 hours at 37° C., 5% CO2. After washing the cells with ice cold PBS, the cells were fixed with ice-cold 1.25% glutaraldehyde and stained with X-gal (5-bromo-4-chloro-3-indolyl-β-d-galactoside; Gibco BRL) as previously described (MacGregor et al., 1987). The transduction efficiency by Adv/CMV/β-gal was determined by the percentage of positive stained cells (blue) for β-galactosidase activity (1000 cells counted per well).
Time Course and Dose Response: To determine the time course of enhancement, H1299 and H460 cells were seeded in 6-well plates (2×10^5 cells/2 mls/well). After an overnight incubation period (37° C., 5% CO2), the initial medium was replaced with freshly prepared media (2 ml) containing 0.062 μg/ml CDDP (Sigma Chemicals, St. Louis, Mo.) (CDDP was prepared fresh by dissolving in distilled water) and the cells were then incubated for 24 hours at 37° C., with 5% CO2. CDDP-treated cells were then washed twice with PBS and subsequently infected with Ad/CMV/β-gal (MOI=1 for H1299 and MOI=5 for H460) on days 0, 1, 2, 3, 4, 5 or 6 following CDDP removal, to determine the time point at which maximal enhancement of expression was occurring. To establish the dose of CDDP needed to produce maximum enhancement, the cells were treated with different concentrations of CDDP (serial, 1:4 dilutions, ranging from 4 μg/ml to 0.0002 μg/ml, 5 ml per 60 mm dish) for 24 hours and subsequently incubated with Ad/CMV/β-gal 48 hours after removal of CDDP. To study if exposure of malignant cells to different classes of antineoplastic agents would lead to a similar elevation of gene expression, H1299 cells were treated with vincristine (Eli Lilly and Co, Indianapolis, Ind.), methotrexate (Lederle Pharmaceuticals, Pearl River, N.Y.), 5-fluorouracil (SoloPak Laboratories, Elk Grove Village, Ill.), epotoside (Bristol Laboratories, Princeton, N.J.) and transplatin (the isomer of CDDP that has no anticancer activity, Sigma Chemical, St. Louis, Mo.) in the similar fashion as CDDP treatment and then infected with Ad/CMV/β-gal 48 hours after removal of drug-containing media. H1299 cells were treated with 2, 4, 8, or 16 Grey (Gy) of ionizing irradiation and then similarly infected 72 hours after irradiation. Untreated cells that were similarly infected, served as controls.

H1299 cells [2] = assay: β-gal expression after gene delivery with Ad/PLL/DNA complex or lipofectamine in CDDP-treated cells; assay type: cell-based, human; conditions: 48 hrs after CDDP removal
Protocol: Gene Transfer Vectors: The recombinant adenovirus carrying the Escherichia coli β-galactosidase gene under the control of the human cytomegalovirus enhancer/promotor (Ad/CMV/β-gal) or the replication defective adenovirus were propagated on 293 cells and purified and stored using techniques previously reported (Nguyen et al., 1996). Viral titer was determined by UV spectrophotometric analysis (Nguyen et al., 1996a; 1996b). To determine if the CDDP-induced enhancement of gene expression would be dependent on the method of gene delivery, two other gene delivery systems were used: the Ad/PLL/DNA complex (Nguyen et al., 1996a; 1996b) and cationic liposomes (Lipofectamine, Gibco BRL). CDDP (0.062 μg/ml)-treated H1299 cells were incubated with either gene delivery system carrying a plasmid that contained the β-gal gene under the control of the CMV enhancer/promotor (CMV/β-gal) 48 hours after drug removal. Plasmid DNA was isolated by the alkaline lysis technique and purified by using Qiagen DNA purification kits (Qiagen, Chatsworth, Calif.). Plasmid containing liposome preparations and gene transfer were performed according to the manufacturer's protocol. The conjugated Ad/PLL/DNA complex was constructed and used to deliver the β-gal gene to H1299 and H460 cells as described elsewhere (Nguyen et al., 1996a; 1996b).

A549 = assay: β-gal expression by X-gal staining after Ad/CMV/β-gal infection of CDDP-treated cells; assay type: cell-based, human; conditions: gene transfer 48 hours after exposure to 0.062 μg/ml of CDDP; MOI=10
Protocol: (§2) The human non-small cell lung carcinoma cell lines H1299 and H460 were grown in RPMI-1640 medium supplemented with 5% heat-inactivated fetal calf serum (FCS), 10 mM glutamine, 100 units/ml of penicillin, 100 μg/ml of streptomycin and 0.25 μg/ml of amphotericin B. Human non-small cell lung carcinoma cell lines H358, H226br, and the cervical cancer cell line SiHa were maintained in complete RPMI-1640 medium supplemented with 10% FCS. The cell line A549 (human, non-small cell lung carcinoma) was grown in Ham's F12 nutrient mixture solution (Gibco BRL, Gaithersburg, Md.) similarly supplemented with antibiotics, glutamine and 10% FCS.
as §1, with “After washing the cells with ice cold PBS, the cells were fixed with ice-cold 1.25% glutaraldehyde and stained with X-gal (5-bromo-4-chloro-3-indolyl-β-d-galactoside; Gibco BRL) as previously described (MacGregor et al., 1987).” left out

[3] = system: primary normal human bronchial epithelial (NHBE) cells; assay: β-gal expression by X-gal staining after Ad/CMV/β-gal infection of CDDP-treated normal cells; assay type: cell-based; conditions: CDDP 0.062 μg/ml; 90% confluent
Protocol: as §2
as §1, with “After washing the cells with ice cold PBS, the cells were fixed with ice-cold 1.25% glutaraldehyde and stained with X-gal (5-bromo-4-chloro-3-indolyl-β-d-galactoside; Gibco BRL) as previously described (MacGregor et al., 1987).” left out

H1299 cells [4] = assay: Cell proliferation assay (daily cell counts); assay type: cell-based, human; conditions: for Increased inhibition of tumor proliferation compared to cells transfected with Adv/CMV/p53 only: CDDP 48 hrs prior to Adv/CMV/p53 (MOI 5)
Protocol: H1299 cells were exposed to CDDP (0.062 μg/ml of medium) for 24 hrs. Cells were then washed twice with PBS, trypsinized and seeded in 6-well plates (10^5 cells/well). Forty eight hours later, cells were infected with Ad/CMV/p53 at the multiplicity of infection (MOI) of 5. Daily cell counts were performed for 5 days following transfection to study the tumor suppression effect of the combination of sequential CDDP and adenovirus-mediated p53 gene transfer. Controls consisted of untreated cells or cells exposed to CDDP only, cells transfected with Ad/CMV/p53 only and cells transfected with d1312 (similar MOI) with or without prior CDDP treatment.

[5] = system: primary human foreskin fibroblasts; conditions: 16 to 20 hours exposure to high concentrations, followed immediately by transduction; cited from earlier work

## N.N.[Cl][Pt][Cl] [CDDP, cis-dichlorodimminocisplatin]
H1299 cells [1]; 24 h exposure, infected 48 hours after CDDP removal
  CDDP concentration at which maximal enhancement of β-gal gene expression occurred: 0.062 µg/mL
H1299 cells [1]; CDDP 0.062 μg/ml
  Time of gene transfer after drug treatment for maximal enhancement: about 48 hours
H1299 cells [1]; CDDP at 0.0039 and 1 μg/ml, infected 48 hours after CDDP removal
  Enhancement of β-gal gene expression: also an enhancement
H1299 cells [1]; drugs at 0.062 μg/ml or irradiated with 8 Greys, stained 24 hrs after infection
  Enhancement of β-gal expression (FIG. 3): Enhancement of β-gal expression was observed
H1299 cells [1]; gene transfer 48 hours after exposure to 0.062 μg/ml of CDDP
  Magnitude of maximal enhancement of transgene expression (FIG. 4B): 2.7 fold
H1299 cells [2]; cationic phospholipid lipofectamine carrying CMV/β-gal plasmid
  β-gal gene expressing cells compared with adenovirus-mediated gene transfer: same magnitude
H1299 cells [2]; conjugated Ad/PLL/DNA complex carrying CMV/β-gal plasmid
  β-gal gene expressing cells compared with adenovirus-mediated gene transfer: same magnitude
A549
  Magnitude of maximal enhancement of transgene expression (FIG. 4B): 1.6 fold
[3]
  Enhancement of gene expression in stationary normal cells: failed to enhance gene expression
H1299 cells [4]; CDDP 0.0625 μg/ml for 24 hrs, alone
  Effect on cell growth in vitro: no effect on cell growth
H1299 cells [4]; day 3 after p53 transfer
  Increased inhibition of tumor proliferation compared to cells transfected with Adv/CMV/p53 only: 61%
H1299 cells [4]; day 5 after p53 transfer
  Increased inhibition of tumor proliferation compared to cells transfected with Adv/CMV/p53 only: 55%
[5]
  Susceptibility to AAV transduction: more susceptible to transduction

— patent publication US6989375B2, “Enhanced expression of transgenes” (priority 1996, dated 2006)
